± gives the expanded uncertainty stated by the source.
Settings: for surface tension liquid-gas: Drop volume; for viscosity / speed of sound / mass density / vapor or sublimation pressure: Liquid; for viscosity: Capillary tube (Ostwald / Ubbelohde) method; for speed of sound: Pulse-echo method; for vapor or sublimation pressure: Ebulliometric method (Recirculating still)

OCC1CCCO1 (stereo not given) [2-tetrahydrofurylmethanol]
Settings	surface tension liquid-gas [mN/m]	vapor or sublimation pressure [kPa]
278.15 K	39.54 ± 0.28	–
280.65 K	39.29 ± 0.28	–
283.15 K	39.03 ± 0.28	–
285.65 K	38.78 ± 0.27	–
288.15 K	38.53 ± 0.27	–
290.65 K	38.27 ± 0.27	–
293.15 K	38.02 ± 0.27	–
295.65 K	37.77 ± 0.27	–
298.15 K	37.51 ± 0.27	–
300.65 K	37.26 ± 0.27	–
303.15 K	37.01 ± 0.27	0.09 ± 0.1
305.65 K	36.75 ± 0.26	–
308.15 K	36.5 ± 0.26	0.15 ± 0.1
310.65 K	36.25 ± 0.26	–
313.15 K	35.99 ± 0.26	–

Settings	mass density [kg/m3]	speed of sound [m/s]	viscosity [mPa·s]
278.15 K, 101.33 kPa	–	1556.4 ± 1.3	10.39 ± 0.22
280.65 K, 101.33 kPa	–	1547.6 ± 1.2	9.487 ± 0.2
283.15 K, 100 kPa	1062.84 ± 0.45	–	–
283.15 K, 101.33 kPa	–	1538.6 ± 1.2	8.684 ± 0.18
283.15 K, 2500 kPa	1064.37 ± 0.48	–	–
283.15 K, 5000 kPa	1065.68 ± 0.5	–	–
283.15 K, 7500 kPa	1066.97 ± 0.53	–	–
283.15 K, 10000 kPa	1068.24 ± 0.56	–	–
283.15 K, 20000 kPa	1073.16 ± 0.69	–	–
283.15 K, 30000 kPa	1077.84 ± 0.84	–	–
283.15 K, 40000 kPa	1082.28 ± 0.99	–	–
283.15 K, 50000 kPa	1086.55 ± 1.2	–	–
283.15 K, 60000 kPa	1090.57 ± 1.3	–	–
285.65 K, 101.33 kPa	–	1529.7 ± 1.2	7.971 ± 0.17
288.15 K, 100 kPa	1058.59 ± 0.44	–	–
288.15 K, 101.33 kPa	–	1520.8 ± 1.2	7.335 ± 0.15
288.15 K, 2500 kPa	1060.15 ± 0.47	–	–
288.15 K, 5000 kPa	1061.47 ± 0.49	–	–
288.15 K, 7500 kPa	1062.8 ± 0.52	–	–
288.15 K, 10000 kPa	1064.09 ± 0.55	–	–
288.15 K, 20000 kPa	1069.11 ± 0.67	–	–
288.15 K, 30000 kPa	1073.88 ± 0.81	–	–
288.15 K, 40000 kPa	1078.41 ± 0.96	–	–
288.15 K, 50000 kPa	1082.72 ± 1.1	–	–
288.15 K, 60000 kPa	1086.83 ± 1.3	–	–
290.65 K, 101.33 kPa	–	1511.8 ± 1.2	6.765 ± 0.14
293.15 K, 100 kPa	1054.34 ± 0.43	–	–
293.15 K, 101.33 kPa	–	1503 ± 1.2	6.254 ± 0.13
293.15 K, 2500 kPa	1055.94 ± 0.46	–	–
293.15 K, 5000 kPa	1057.3 ± 0.48	–	–
293.15 K, 7500 kPa	1058.64 ± 0.51	–	–
293.15 K, 10000 kPa	1060 ± 0.53	–	–
293.15 K, 20000 kPa	1065.1 ± 0.65	–	–
293.15 K, 30000 kPa	1069.97 ± 0.79	–	–
293.15 K, 40000 kPa	1074.62 ± 0.93	–	–
293.15 K, 50000 kPa	1078.97 ± 1.1	–	–
293.15 K, 60000 kPa	1083.18 ± 1.3	–	–
295.65 K, 101.33 kPa	–	1494.2 ± 1.2	5.795 ± 0.12
298.15 K, 100 kPa	1050.06 ± 0.43	–	–
298.15 K, 101.33 kPa	–	1485.3 ± 1.2	5.381 ± 0.11
298.15 K, 2500 kPa	1051.72 ± 0.45	–	–
298.15 K, 5000 kPa	1053.11 ± 0.47	–	–
298.15 K, 7500 kPa	1054.48 ± 0.49	–	–
298.15 K, 10000 kPa	1055.84 ± 0.52	–	–
298.15 K, 20000 kPa	1061.08 ± 0.63	–	–
298.15 K, 30000 kPa	1066.04 ± 0.76	–	–
298.15 K, 40000 kPa	1070.75 ± 0.9	–	–
298.15 K, 50000 kPa	1075.22 ± 1.1	–	–
298.15 K, 60000 kPa	1079.49 ± 1.2	–	–
300.65 K, 101.33 kPa	–	1476.5 ± 1.2	5.006 ± 0.11
303.15 K, 100 kPa	1045.78 ± 0.42	–	–
303.15 K, 101.33 kPa	–	1467.8 ± 1.2	4.667 ± 0.099
303.15 K, 2500 kPa	1047.47 ± 0.44	–	–
303.15 K, 5000 kPa	1048.9 ± 0.46	–	–
303.15 K, 7500 kPa	1050.31 ± 0.48	–	–
303.15 K, 10000 kPa	1051.69 ± 0.51	–	–
303.15 K, 20000 kPa	1057.06 ± 0.61	–	–
303.15 K, 30000 kPa	1062.11 ± 0.73	–	–
303.15 K, 40000 kPa	1066.94 ± 0.87	–	–
303.15 K, 50000 kPa	1071.49 ± 1	–	–
303.15 K, 60000 kPa	1075.79 ± 1.2	–	–
305.65 K, 101.33 kPa	–	1459 ± 1.2	4.359 ± 0.092
308.15 K, 100 kPa	1041.48 ± 0.41	–	–
308.15 K, 101.33 kPa	–	1450.3 ± 1.2	4.078 ± 0.087
308.15 K, 2500 kPa	1043.19 ± 0.43	–	–
308.15 K, 5000 kPa	1044.66 ± 0.45	–	–
308.15 K, 7500 kPa	1046.09 ± 0.47	–	–
308.15 K, 10000 kPa	1047.48 ± 0.49	–	–
308.15 K, 20000 kPa	1052.96 ± 0.59	–	–
308.15 K, 30000 kPa	1058.12 ± 0.71	–	–
308.15 K, 40000 kPa	1063.05 ± 0.84	–	–
308.15 K, 50000 kPa	1067.61 ± 0.98	–	–
308.15 K, 60000 kPa	1072.09 ± 1.1	–	–
310.65 K, 101.33 kPa	–	1441.6 ± 1.2	3.822 ± 0.081
313.15 K, 100 kPa	1037.17 ± 0.4	–	–
313.15 K, 101.33 kPa	–	1432.8 ± 1.2	3.588 ± 0.076
313.15 K, 2500 kPa	1038.92 ± 0.42	–	–
313.15 K, 5000 kPa	1040.41 ± 0.44	–	–

101.33 kPa, Vibrating tube method
Settings	mass density [kg/m3]
278.15 K	1067.07 ± 0.29
280.65 K	1064.96 ± 0.29
283.15 K	1062.84 ± 0.29
285.65 K	1060.72 ± 0.29
288.15 K	1058.59 ± 0.29
290.65 K	1056.47 ± 0.29
293.15 K	1054.34 ± 0.28
295.65 K	1052.2 ± 0.28
298.15 K	1050.06 ± 0.28
300.65 K	1047.92 ± 0.28
303.15 K	1045.78 ± 0.28
305.65 K	1043.63 ± 0.28
308.15 K	1041.48 ± 0.28
310.65 K	1039.33 ± 0.27
313.15 K	1037.17 ± 0.27

Reference: the NIST ThermoML archive (doi:10.1021/je400783h)
